Measurements reported in US7879795B2, “Enhancement of tigecycline potency using efflux pump inhibitors” (Mpex Pharmaceuticals, Inc., priority 2004, dated 2011).

Tests used:
[1] = Rat serum pharmacokinetics after 2-hour IV infusion; assay type: in vivo; conditions: serum, 2-hour IV infusion, total dose 10 mg/kg, two-compartment model
Method: Rat serum pharmacokinetics of compounds 1, 3, 7, and 21 was evaluated after 2-hour IV infusion of 1 mg/ml EPI solution in 0.9% saline. Total infused dose was 10 mg/kg. FIG. 12 depicts the serum concentrations as a function of time. A two-compartment model was used to fit the data and calculate PK parameters.

[2] = Tissue levels after 2-hour IV infusion in rats; assay type: in vivo, rat; conditions: for concentration at 4 h: 2 h after end of 2-hour IV infusion; for concentration at 4 h / concentration at 6 h / concentration at 2 h: 10 mg/kg; for concentration at 6 h: 4 h after end of 2-hour IV infusion; for concentration at 2 h: end of 2-hour IV infusion; for tissue levels and clearance from tissues after 2-hour IV infusion: rat, in words
Method: Levels of EPIs in various tissues were evaluated after 2-hour IV infusion in rats. The rats received 10 mg/kg IV infusion through FVC. Animals were divided into 2 groups: group 1 was sacrificed immediately after the end of infusion and group 2, 2 h or 4 h after the end of infusion. Tissues from each animal were collected, homogenized and compounds were extracted. Tissues were mixed with saline at 1:1 ratio (v/w) in 12×75 mm polypropylene round bottom tubes. The mixtures were homogenized with a Polytron homogenizer (on ice, 3×10-15 seconds with 30 seconds intervals at the setting of 7). 50 μl of homogenized tissue were immediately transferred to an Eppendorf tube and 2-volumes of 4% TCA were added. After vortexing for 30 seconds, the tubes were centrifuged in a microfuge at top speed (13.2 k rpm) for 5 minutes. The supernatant was collected, and 45 μl of the supernatant was transferred to a glass LC/MS/MS vial (Kimble, 11 mm, 1.5 ml) for analysis, which allowed determination of tissue levels of EPIs at the end of the infusion and 2 h or 4 h later.

[3] = test system: P. aeruginosa strain PAM1723 overexpressing MexAB-OprM efflux pump; experiment: Neutropenic mice thigh model of PA infection; assay type: in vivo; conditions: levofloxacin 30 mg/kg SQ, EPI 60 mg/kg IP, 2 hours post-infection
Method: Efficacy of the EPIs was evaluated in a Neutropenic Mice Thigh Model of P. aeruginosa Infection. Neutropenia was induced by cyclophosphamide 100 mg/kg IP on days 3 and 1 prior to infection. P. aeruginosa strain PAM1723 overexpressing MexAB-OprM efflux pump was grown overnight in Mueller-Hinton Broth (MHB). The next day, the overnight culture was diluted in fresh MHB and was allowed to re-grow to ˜10^8 CFU/mL (OD600˜0.3). The culture was spun down, washed twice with phosphate buffered saline (PBS) and re-suspend in PBS to ˜4×10^6 CFU/mL. Next, this culture was mixed 1:1 with 14% hog-gastric mucin in PBS to give a final inoculum of 2×10^6 CFU/mL. Infection was initiated with injection of 0.1 mL of inoculum (˜2×10^5 CFU/thigh) directly into both thighs of each mouse. Two mice from each treatment group were euthanized at various times after the start of treatment. The thighs were removed aseptically, homogenized in saline, and immediately plated to determine bacterial load (CFU/ml). Treatment was initiated 2 hours post infection.

[4] = In vitro stability in rat serum and tissue homogenates (LC/MS/MS); assay type: in vitro ADME; conditions: for stability in tissue homogenates at pH lowered to about 6 versus no pH change: rat kidney, liver, lung homogenates, acetic acid

NCCC[C@H](N)C(=O)N[C@H](Cc1ccc(C(F)(F)F)cc1)C(=O)Nc1cnc2ccccc2c1 [Compound 21, 2-(S),5-Diamino-pentanoic acid [1-(R)-(quinolin-3-ylcarbamoyl)-2-(4-trifluoromethyl-phenyl)-ethyl]amide]
clearance [1]: 16.2 mL/min/kg
2 h/6 h Ratio ([2]; rat brain concentration): 16.37
concentration at 4 h ([2]; rat brain): 470 ng/mL
concentration at 6 h ([2]; rat brain): 30 ng/mL
concentration at 2 h ([2]; rat brain): 490 ng/mL
2 h/6 h Ratio ([2]; rat heart concentration): 7.33
concentration at 4 h ([2]; rat heart): 1760 ng/mL
concentration at 6 h ([2]; rat heart): 720 ng/mL
concentration at 2 h ([2]; rat heart): 5250 ng/mL
2 h/6 h Ratio ([2]; rat kidney concentration): 20.10
concentration at 4 h ([2]; rat kidney): 20800 ng/mL
concentration at 6 h ([2]; rat kidney): 2920 ng/mL
concentration at 2 h ([2]; rat kidney): 58700 ng/mL
2 h/6 h Ratio ([2]; rat liver concentration): 30.21
concentration at 4 h ([2]; rat liver): 2320 ng/mL
concentration at 6 h ([2]; rat liver): 200 ng/mL
concentration at 2 h ([2]; rat liver): 5950 ng/mL
2 h/6 h Ratio ([2]; rat lung concentration): 3.43
concentration at 6 h ([2]; rat lung): 3900 ng/mL
concentration at 2 h ([2]; rat lung): 13400 ng/mL
2 h/6 h Ratio ([2]; rat muscle concentration): 3.94
concentration at 4 h ([2]; rat muscle): 1360 ng/mL
concentration at 6 h ([2]; rat muscle): 1210 ng/mL
concentration at 2 h ([2]; rat muscle): 4750 ng/mL
2 h/6 h Ratio ([2]; rat pancreas concentration): 20.73
concentration at 4 h ([2]; rat pancreas): 1580 ng/mL
concentration at 6 h ([2]; rat pancreas): 470 ng/mL
concentration at 2 h ([2]; rat pancreas): 9710 ng/mL
2 h/6 h Ratio ([2]; rat spleen concentration): 3.46
concentration at 4 h ([2]; rat spleen): 4440 ng/mL
concentration at 6 h ([2]; rat spleen): 2210 ng/mL
concentration at 2 h ([2]; rat spleen): 7660 ng/mL
2 h/6 h Ratio ([2]; rat testicles concentration): 8.32
concentration at 4 h ([2]; rat testicles): 330 ng/mL
concentration at 6 h ([2]; rat testicles): 80 ng/mL
concentration at 2 h ([2]; rat testicles): 700 ng/mL
2 h/6 h Ratio ([2]; rat thymus concentration): 2.02
concentration at 4 h ([2]; rat thymus): 6000 ng/mL
concentration at 6 h ([2]; rat thymus): 3590 ng/mL
concentration at 2 h ([2]; rat thymus): 7250 ng/mL
tissue levels and clearance from tissues after 2-hour IV infusion [2]: Slower clearance
bacterial load in thighs, EPI with levofloxacin versus levofloxacin alone [3]: significantly enhanced activity of levofloxacin

NCCC[C@@H](N)C(=O)N[C@H](CCc1ccccc1)C(=O)Nc1cnc2ccccc2c1 [Compound 1, 2-(R),5-Diamino-pentanoic acid [3-phenyl-1-(R)-(quinolin-3-ylcarbamoyl)-propyl]-amide]
compound left after 16 hrs of incubation ([4]; all of the tissues tested (rat serum, tissue homogenates), 37° C., 2 μg/ml): 70-80%
stability in supernatant of rat kidney tissue homogenates ([4]; in words): neither compound 1 nor compound 4 show any instability
stability in tissue homogenates at pH lowered to about 6 versus no pH change [4]: essentially unchanged
stability in all of the tissues tested ([4]; rat, in words): highly stable
clearance [1]: 24 mL/min/kg
2 h/4 h Ratio ([2]; rat brain concentration): 1.34
concentration at 4 h ([2]; rat brain): 130 ng/mL
concentration at 2 h ([2]; rat brain): 180 ng/mL
2 h/4 h Ratio ([2]; rat heart concentration): 0.93
concentration at 4 h ([2]; rat heart): 2340 ng/mL
concentration at 2 h ([2]; rat heart): 2180 ng/mL
2 h/4 h Ratio ([2]; rat kidney concentration): 1.66
concentration at 4 h ([2]; rat kidney): 29600 ng/mL
concentration at 2 h ([2]; rat kidney): 49300 ng/mL
2 h/4 h Ratio ([2]; rat liver concentration): 0.99
concentration at 4 h ([2]; rat liver): 10600 ng/mL
concentration at 2 h ([2]; rat liver): 10600 ng/mL
2 h/4 h Ratio ([2]; rat lung concentration): 1.55
concentration at 4 h ([2]; rat lung): 4180 ng/mL
concentration at 2 h ([2]; rat lung): 6500 ng/mL
2 h/4 h Ratio ([2]; rat muscle concentration): 1.59
concentration at 4 h ([2]; rat muscle): 2860 ng/mL
concentration at 2 h ([2]; rat muscle): 4540 ng/mL
2 h/4 h Ratio ([2]; rat pancreas concentration): 1.34
concentration at 4 h ([2]; rat pancreas): 4050 ng/mL
concentration at 2 h ([2]; rat pancreas): 5400 ng/mL
2 h/4 h Ratio ([2]; rat spleen concentration): 1.35
concentration at 4 h ([2]; rat spleen): 3710 ng/mL
concentration at 2 h ([2]; rat spleen): 5010 ng/mL
2 h/4 h Ratio ([2]; rat testicles concentration): 2.04
concentration at 4 h ([2]; rat testicles): 280 ng/mL
concentration at 2 h ([2]; rat testicles): 580 ng/mL
2 h/4 h Ratio ([2]; rat thymus concentration): 1.23
concentration at 4 h ([2]; rat thymus): 2760 ng/mL
concentration at 2 h ([2]; rat thymus): 3410 ng/mL
tissue levels and clearance from tissues after 2-hour IV infusion [2]: High levels
bacterial load in thighs, EPI with levofloxacin versus levofloxacin alone [3]: significantly enhanced activity of levofloxacin

NCCC[C@H](N)C(=O)N[C@H](CCc1ccccc1)C(=O)Nc1cnc2ccccc2c1 [Compound 3, 2-(S),5-Diamino-pentanoic acid [3-phenyl-1-(R)-(quinolin-3-ylcarbamoyl)-propyl]-amide]
stability in supernatant versus pellet of kidney tissue homogenates ([4]; after 5 min. centrifugation): Greater instability
stability in rat serum ([4]; in words): at least as stable as 1
stability in supernatant of rat kidney tissue homogenates ([4]; in words): supernatant instability was selective to compound 3
stability in tissue homogenates at pH lowered to about 6 versus no pH change [4]: degraded faster
stability in kidney and liver ([4]; rat tissue homogenates, in words): more unstable than 1
clearance [1]: 23.3 mL/min/kg
2 h/4 h Ratio ([2]; rat brain concentration): 0.35
concentration at 4 h ([2]; rat brain): 210 ng/mL
concentration at 2 h ([2]; rat brain): 70 ng/mL
2 h/4 h Ratio ([2]; rat heart concentration): 4.82
concentration at 4 h ([2]; rat heart): 470 ng/mL
concentration at 2 h ([2]; rat heart): 2260 ng/mL
2 h/4 h Ratio ([2]; rat kidney concentration): 7.28
concentration at 4 h ([2]; rat kidney): 1680 ng/mL
concentration at 2 h ([2]; rat kidney): 12200 ng/mL
2 h/4 h Ratio ([2]; rat liver concentration): 1.60
concentration at 4 h ([2]; rat liver): 830 ng/mL
concentration at 2 h ([2]; rat liver): 1330 ng/mL
2 h/4 h Ratio ([2]; rat lung concentration): 2.23
concentration at 4 h ([2]; rat lung): 1910 ng/mL
concentration at 2 h ([2]; rat lung): 4270 ng/mL
2 h/4 h Ratio ([2]; rat muscle concentration): 1.91
concentration at 4 h ([2]; rat muscle): 1140 ng/mL
concentration at 2 h ([2]; rat muscle): 2180 ng/mL
2 h/4 h Ratio ([2]; rat pancreas concentration): 2.91
concentration at 4 h ([2]; rat pancreas): 380 ng/mL
concentration at 2 h ([2]; rat pancreas): 1110 ng/mL
2 h/4 h Ratio ([2]; rat spleen concentration): 6.16
concentration at 4 h ([2]; rat spleen): 720 ng/mL
concentration at 2 h ([2]; rat spleen): 4410 ng/mL
2 h/4 h Ratio ([2]; rat testicles concentration): 5.14
concentration at 4 h ([2]; rat testicles): 60 ng/mL
concentration at 2 h ([2]; rat testicles): 320 ng/mL
2 h/4 h Ratio ([2]; rat thymus concentration): 1.69
concentration at 4 h ([2]; rat thymus): 1460 ng/mL
concentration at 2 h ([2]; rat thymus): 2460 ng/mL
tissue levels and clearance from tissues after 2-hour IV infusion [2]: Lower levels
bacterial load in thighs, EPI with levofloxacin versus levofloxacin alone [3]: potentiated levofloxacin in vivo
